Laboratory results published in patent US20130012466A1 (priority 2006, published 2013).
“Also recorded” adds a separate entry of the source. Like-named read-outs stand apart in the source and are kept apart here.

Experiments:
MCF7 = test: Cytotoxicity assay (cell titer-glo and calcein AM), MCF7
Hep3B = test: Cytotoxicity assay (cell titer-glo and calcein AM), Hep3B
SK-OV-3 = test: Cytotoxicity assay (cell titer-glo and calcein AM), SK-OV-3
ADR-RES = test: Cytotoxicity assay (cell titer-glo and calcein AM), ADR-RES
NCI-H460 = test: Cytotoxicity assay (cell titer-glo and calcein AM), NCI-H460
HCT-116 = test: Cytotoxicity assay (cell titer-glo and calcein AM), HCT-116
[1] = tested on: mouse mammary normal epithelial control cell line; test: Cytotoxicity assay, normal control cell line
SF-268 = test: Cytotoxicity assay (cell titer-glo and calcein AM), SF-268
Du145 = test: Cytotoxicity assay (cell titer-glo and calcein AM), Du145
A549 = test: Cytotoxicity assay (cell titer-glo and calcein AM), A549
A549 cells [2] = test: Drug combination study with colchicine (Chou-Talalay combination index); conditions: for plus colchicine, mean CI / plus colchicine, median CI: combination index, colchicine held at IC10, A549 cells; for interaction with colchicine: drug combination, A549 cells, Chou-Talalay
Experimental: (§1) Ten thousand A549 cells per well were plated in triplicate in 96 well black tissue culture treated plates. Cells were incubated for one hour at 37° C. to allow cells to attach.
(§2) All synergy experiment results were replicated at least three times and the overall effects analyzed by averaging all combination indexes generated if the fraction affected was greater than 0.2.

A549 cells [3] = test: Drug combination study with paclitaxel (Chou-Talalay combination index); conditions: for plus paclitaxel, mean CI / plus paclitaxel, median CI: combination index, paclitaxel held at IC10, A549 cells; for interaction with paclitaxel/taxol: drug combination, A549 cells, Chou-Talalay;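 on all read-outs here: combination indexes averaged only over points where fraction affected exceeded 0.2, with each synergy experiment repeated at least three times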
Experimental: as §1, §2

tubulin = test: In vitro tubulin polymerization assay (fluorescence-based); format: biochemical; parameters: key to tubulin polymeriz.: ‘D’ designates destabilizer; ‘S’ designates stabilizer; conditions: for effect on tubulin polymerization / microtubules: tested in duplicate on at least two days
Experimental: In vitro tubulin polymerization assays were performed using a fluorescence-based assay (Cytoskeleton, Inc., Denver, Colo.). […] Aliquots (5 μL) of each compound or control were added to a 96-well black half area plate (Corning Costar, Inc.) pre-warmed to 37° C. Cold tubulin reaction mix (50 μL 1× Buffer—80 mM piperazine-N,N′-bis[2-ethanesulfonic acid]sequisodium salt; 2.0 mM magnesium chloride; 0.5 mM ethylene glycol-bis[β-amino-ethyl ether) N,N,N′,N′-tetra-acetic acid, pH 6.9, 10 μM fluorescent reporter; 20% tubulin glycerol buffer—80 mM piperazine-N,N′-bis[2-ethanesulfonic acid] sequisodium salt; 2.0 mM magnesium chloride; 0.5 mM ethylene glycol-bis(β-amino-ethyl ether) N,N,N′,N′-tetra-acetic acid, 60% v/v glycerol, pH 6.9, 1 mM GTP; and 2 mg mL^−1 tubulin stock) was added to each of the compounds. […] Polymerization curves were generated in Excel after background correction and the effects of test compounds were compared to controls.
Library members that accelerated the rate of tubulin polymerization were deemed microtubule stabilizers, whereas compounds that decelerated the rate of tubulin polymerization were deemed microtubule de-stabilizers.

[4] = read-out: Cytotoxicity IC50, MCF7, CTG, CTG (cell titer-glo) readout, % error in parentheses
[5] = read-out: Cytotoxicity IC50, MCF7, calcein, calcein AM readout, % error in parentheses
[6] = read-out: Cytotoxicity IC50, Hep 3B, CTG, Hep 3B, CTG (cell titer-glo) readout, % error in parentheses
[7] = read-out: Cytotoxicity IC50, Hep 3B, calcein, Hep 3B, calcein AM readout, % error in parentheses
[8] = read-out: Cytotoxicity IC50, SK-OV-3, CTG, SK-OV-3, CTG (cell titer-glo) readout, % error in parentheses
[9] = read-out: Cytotoxicity IC50, SK-OV-3, calcein, SK-OV-3, calcein AM readout, % error in parentheses
[10] = read-out: Cytotoxicity IC50, NCI/ADR RES, CTG, NCI/ADR RES, CTG (cell titer-glo) readout, % error in parentheses
[11] = read-out: Cytotoxicity IC50, NCI/ADR RES, calcein, NCI/ADR RES, calcein AM readout, % error in parentheses
[12] = read-out: Cytotoxicity IC50, NCI-H460, CTG, NCI-H460, CTG (cell titer-glo) readout, % error in parentheses
[13] = read-out: Cytotoxicity IC50, NCI-H460, calcein, NCI-H460, calcein AM readout, % error in parentheses
[14] = read-out: Cytotoxicity IC50, NmuMG, CTG, CTG (cell titer-glo) readout, % error in parentheses
[15] = read-out: Cytotoxicity IC50, NmuMG, calcein, calcein AM readout, % error in parentheses
[16] = read-out: Cytotoxicity IC50, SF-268, CTG, SF-268, CTG (cell titer-glo) readout, % error in parentheses
[17] = read-out: Cytotoxicity IC50, SF-268, calcein, SF-268, calcein AM readout, % error in parentheses
[18] = read-out: Cytotoxicity IC50, Du145, CTG, Du145, CTG (cell titer-glo) readout, % error in parentheses
[19] = read-out: Cytotoxicity IC50, Du145, calcein, Du145, calcein AM readout, % error in parentheses
[20] = read-out: Cytotoxicity IC50, A549, CTG, A549, CTG (cell titer-glo) readout, % error in parentheses
[21] = read-out: Cytotoxicity IC50, A549, calcein, A549, calcein AM readout, % error in parentheses
[22] = Homo sapiens, Hep3B, read-out: Cytotoxicity IC50, Hep 3B, calcein
[23] = Homo sapiens, SK-OV-3, read-out: Cytotoxicity IC50, SK-OV-3, CTG
[24] = Homo sapiens, SK-OV-3, read-out: Cytotoxicity IC50, SK-OV-3, calcein
[25] = Homo sapiens, NCI/ADR-RES, read-out: Cytotoxicity IC50, NCI/ADR RES, calcein
[26] = Homo sapiens, HCT-116, read-out: Cytotoxicity IC50, HCT-116, CTG
[27] = Homo sapiens, HCT-116, read-out: Cytotoxicity IC50, HCT-116, calcein
[28] = Homo sapiens, SF-268, read-out: Cytotoxicity IC50, SF-268, calcein
[29] = Homo sapiens, DU-145, read-out: Cytotoxicity IC50, Du145, CTG
[30] = Homo sapiens, DU-145, read-out: Cytotoxicity IC50, Du145, calcein

Molecule | IC50 (MCF7; [4]) | IC50 (MCF7; [5]) | IC50 (Hep3B; [6]) | IC50 (Hep3B; [7]) | IC50 (SK-OV-3; [8]) | IC50 (SK-OV-3; [9]) | IC50 (ADR-RES; [10]) | IC50 (ADR-RES; [11]) | IC50 (NCI-H460; [12]) | IC50 (NCI-H460; [13]) | IC50 [1, 14] | IC50 [1, 15] | IC50 (SF-268; [16]) | IC50 (SF-268; [17]) | IC50 (Du145; [19]) | IC50 (A549; [20]) | IC50 (A549; [21]) | plus colchicine, mean CI (A549 cells [2]) | plus colchicine, median CI (A549 cells [2]) | interaction with colchicine (A549 cells [2]) | other results
6-thio-D-mannose dimer [Col58] | 2500 nM | 3860 nM | 8620 nM | 5020 nM | 6070 nM | 7560 nM | 3600 nM | 1570 nM | > 10000 nM | > 10000 nM | 6390 nM | > 10000 nM | 8010 nM | 9090 nM | 2120 nM | 3920 nM | 4620 nM | – | – | – | IC50 (HCT-116; read-out: Cytotoxicity IC50, HCT-116, CTG, HCT-116, CTG (cell titer-glo) readout, % error in parentheses): 1900 nM; IC50 (HCT-116; read-out: Cytotoxicity IC50, HCT-116, calcein, HCT-116, calcein AM readout, % error in parentheses): 2510 nM; IC50 (Du145; [18]): 2090 nM
COc1cc2c(c(OC)c1OC)-c1ccc(OC)c(=O)cc1[C@@H](NC(=O)CN(OC)[C@H]1C[C@@H](O)[C@H](O)[C@@H](CO)O1)CC2 [Col16, 2-deoxy-D-glucoside] | 2650 nM | 1920 nM | 1920 nM | 1440 nM | 432 nM | 625 nM | 1680 nM | 899 nM | 946 nM | 808 nM | 1610 nM | 4420 nM | 1070 nM | 1540 nM | 910 nM | 3900 nM | 1680 nM | 5.97 | 5.33 | antagonism | plus paclitaxel, mean CI (A549 cells [3]): 0.40; plus paclitaxel, median CI (A549 cells [3]): 0.11; interaction with paclitaxel/taxol (A549 cells [3]): synergy; IC50 (Du145; [18]): 705 nM; effect on tubulin polymerization / microtubules (tubulin): destabilized microtubules
COc1cc2c(c(OC)c1OC)-c1ccc(OC)c(=O)cc1[C@@H](NC(=O)CN(OC)[C@@H]1O[C@H](CO)[C@@H](O)[C@H](O)[C@H]1F)CC2 [Col34, 2-fluoro-2-deoxy-D-glucoside] | 242 nM | 254 nM | 545 nM | 1170 nM | 325 nM | 800 nM | > 1000 nM | > 1000 nM | > 1000 nM | > 1000 nM | 451 nM | 760 nM | 281 nM | 452 nM | 328 nM | 545 nM | 778 nM | 31.49 | 21.50 | strong antagonism | plus paclitaxel, mean CI (A549 cells [3]): 0.18; plus paclitaxel, median CI (A549 cells [3]): 0.12; interaction with paclitaxel/taxol (A549 cells [3]): strong synergism; effect on tubulin polymerization / microtubules (tubulin): destabilized microtubules
CONCC(=O)N[C@H]1CCc2cc(OC)c(OC)c(OC)c2-c2ccc(OC)c(=O)cc21 [Col 8, 19-N-methoxyamino-colchicine] | – | – | – | – | – | – | – | – | – | – | – | – | – | – | – | – | – | 2.98 | 1.47 | antagonism | IC50 (Hep3B; Homo sapiens, Hep3B, read-out: Cytotoxicity IC50, Hep 3B, CTG): 141 nM; IC50 (Hep3B; [22]): 284 nM; IC50 (SK-OV-3; [23]): 455 nM; IC50 (SK-OV-3; [24]): 316 nM; IC50 (ADR-RES; Homo sapiens, NCI/ADR-RES, read-out: Cytotoxicity IC50, NCI/ADR RES, CTG): 79 nM; IC50 (ADR-RES; [25]): 65 nM; plus paclitaxel, mean CI (A549 cells [3]): 0.90; plus paclitaxel, median CI (A549 cells [3]): 0.57; interaction with paclitaxel/taxol (A549 cells [3]): synergy; IC50 (HCT-116; [26]): 116 nM; IC50 (HCT-116; [27]): 98 nM; IC50 (SF-268; Homo sapiens, SF-268, read-out: Cytotoxicity IC50, SF-268, CTG): 116 nM; IC50 (SF-268; [28]): 191 nM; IC50 (Du145; [29]): 64 nM; IC50 (Du145; [30]): 84 nM
CC(=O)O[C@H]1C(=O)[C@@]2(C)[C@H]([C@H](OC(=O)c3ccccc3)[C@]3(O)C[C@H](OC(=O)[C@H](O)[C@@H](NC(=O)c4ccccc4)c4ccccc4)C(C)=C1C3(C)C)[C@]1(OC(C)=O)CO[C@@H]1C[C@@H]2O [paclitaxel, reference compound] | – | – | – | – | – | – | – | – | – | – | – | – | – | – | – | – | – | – | – | – | IC50 (Hep3B; [22]): 166 nM; IC50 (Hep3B; Homo sapiens, Hep3B, read-out: IC50 (Hep3B)): 166 nM; IC50 (SK-OV-3; [23]): 42 nM; IC50 (SK-OV-3; [24]): 34 nM; IC50 (SK-OV-3; Homo sapiens, SK-OV-3, read-out: IC50 (SK-OV-3)): 34 nM; IC50 (ADR-RES; [25]): 43 nM; IC50 (ADR-RES; Homo sapiens, read-out: IC50 (ADR-RES)): 43 nM; IC50 (NCI-H460; Homo sapiens, NCI-H460, read-out: IC50 (NCI-H460)): 105 nM; IC50 (HCT-116; [26]): 168 nM; IC50 (HCT-116; [27]): 275 nM; IC50 (HCT-116; Homo sapiens, HCT-116, read-out: IC50 (HCT-116)): 275 nM; IC50 (SF-268; [28]): 315 nM; IC50 (SF-268; Homo sapiens, SF-268, read-out: IC50 (SF-268)): 315 nM; IC50 (Du145; [29]): 432 nM; IC50 (Du145; [30]): 290 nM; IC50 (Du145; Homo sapiens, DU-145, read-out: IC50 (Du145)): 290 nM; IC50 (A549; Homo sapiens, A549, read-out: IC50 (A549)): 75 nM; tubulin polymeriz. (tubulin): S; effect on tubulin polymerization / microtubules (tubulin): stabilizing; also recorded: stabilized the microtubules
